Source: patent US7348140B1, “Clinical indications for genotyping polymorphic variants of G-protein coupled receptors” (Acadia Pharmaceuticals, Inc., priority 2001, dated 2008)
Structures can show the parent of a compound that is named as a salt. Where two headings read alike, the source gives them in different places.

Columns and labels:
[1] = target: dopamine D2 receptor (Leucine 40 / Valine 208) (Homo sapiens, UniProt P14416); assay: R-SAT functional assay, dopamine D2 receptor wild type; format: cell-based; conditions: read-out: Ave −Log EC50 (converted)
[2] = target: T1, dopamine D2 receptor V208L (Leucine 208) (Homo sapiens, UniProt P14416, V208L); assay: R-SAT functional assay, dopamine D2 receptor V208L; format: cell-based; conditions: Leucine 208 (V208L); Table 7; read-out: Ave −Log EC50 (converted)
T1 construct: expressed in transfected cells; host or cells: NIH-3T3

[3] = target: serotonin 2B receptor (Arginine 388) (Homo sapiens, UniProt P41595); assay: cell-based; conditions: Arginine 388 (wild type); Table 19; read-out: Ave −Log EC50 (converted)
[4] = target: T2, histamine H2 receptor K231R (Arginine 231) (Homo sapiens, UniProt P25021, K231R); assay: R-SAT functional assay, histamine H2 receptor K231R; format: cell-based
T2 construct: expressed in transfected cells; host or cells: NIH-3T3

[5] = target: histamine H2 receptor (Arginine 215 / Lysine 231) (Homo sapiens, UniProt P25021); assay: R-SAT functional assay, histamine H2 receptor wild type; format: cell-based; conditions: agonists and inverse agonists
[6] = target: T3, dopamine D1 receptor T37P (Proline 37) (Homo sapiens, UniProt P21728, T37P); assay: R-SAT functional assay, dopamine D1 receptor T37P; format: cell-based; conditions: Table 3
T3 construct: expressed in transfected cells; host or cells: NIH-3T3

[7] = target: T4, dopamine D1 receptor P79S (Serine 79) (Homo sapiens, UniProt P21728, P79S); assay: R-SAT functional assay, dopamine D1 receptor P79S; format: cell-based; conditions: Table 4
T4 construct: expressed in transfected cells; host or cells: NIH-3T3

[8] = target: dopamine D1 receptor (Threonine 37 / Proline 79 / Serine 199) (Homo sapiens, UniProt P21728); assay: R-SAT functional assay, dopamine D1 receptor wild type; format: cell-based; conditions: read-out: Ave −Log EC50 (converted)
[9] = target: T5, dopamine D1 receptor S199A (Alanine 199) (Homo sapiens, UniProt P21728, S199A); assay: R-SAT functional assay, dopamine D1 receptor S199A; format: cell-based; conditions: Table 5
T5 construct: expressed in transfected cells; host or cells: NIH-3T3

[10] = target: serotonin 7 receptor (Leucine 421) (Homo sapiens, UniProt P34969); assay: R-SAT functional assay, serotonin 7 receptor wild type; format: cell-based; conditions: Leucine 421 (wild type); inverse agonists; Table 20; read-out: Ave −Log EC50 (converted)
[11] = target: serotonin 7 receptor L421P (Proline 421) (Homo sapiens, UniProt P34969, L421P); assay: R-SAT functional assay, serotonin 7 receptor L421P; format: cell-based; conditions: Table 20
[12] = target: T6, thromboxane receptor V176E (Glutamic Acid 176) (Homo sapiens, UniProt P21731, V176E); assay: R-SAT functional assay, thromboxane receptor V176E; format: cell-based; conditions: shift in functional potency, Glutamic Acid 176 vs Valine 176
T6 construct: expressed in transfected cells; host or cells: NIH-3T3

[13] = target: T7, thromboxane receptor V80E (Glutamic Acid 80) (Homo sapiens, UniProt P21731, V80E); assay: R-SAT functional assay, thromboxane receptor V80E; format: cell-based; conditions: shift in functional potency, Glutamic Acid 80 vs Valine 80; Table 26
T7 construct: expressed in transfected cells; host or cells: NIH-3T3

[14] = target: T8, thromboxane receptor E94V (Valine 94) (Homo sapiens, UniProt P21731, E94V); assay: R-SAT functional assay, thromboxane receptor E94V; format: cell-based; conditions: shift in functional potency, Valine 94 vs Glutamine 94; Table 27
T8 construct: expressed in transfected cells; host or cells: NIH-3T3

[15] = target: T9, cholecystokinin B receptor L224Q (Glutamine 224) (Homo sapiens, UniProt P32239, E288K/L224Q); assay: R-SAT functional assay, cholecystokinin B receptor L224Q; format: cell-based
T9 construct: expressed in transfected cells; host or cells: NIH-3T3

[16] = target: Neuropeptide Y1 receptor, wild type (Histidine 298) (UniProt P25929); assay: cell-based or functional assay
[17] = target: Neuropeptide Y1 receptor H298P variant (Proline 298) (UniProt P25929); assay: cell-based or functional assay
[18] = Lysine 231 (wild type), Table 11

For `CN1C[C@@H](NS(=O)(=O)N(C)C)C[C@@H]2c3cccc4c3c(cn4C)C[C@H]21` [Mesulergine], the EC50 ([1]; Leucine 40 (wild type), Table 6) was 3.55 nM, the EC50 ([1]; Valine 208 (wild type), Table 7) was 6.92 nM and the EC50 [2] was 2.14 nM.
For `CNCCC=C1c2ccccc2CCc2ccccc21` [Nortryptiline], the EC50 [3] was 39.8 nM.
With `COc1ccc(C2CNC(=O)C2)cc1OC1CCCC1` (centres unmarked) [ROLIPRAM] the EC50 [4] was 692 nM, the FOLD [4] was 1.6 fold and the EC50 ([5]; Arginine 215 (wild type), Table 10, read-out: Ave −Log EC50 (converted)) was 437 nM. The “Ave −Log EC50” value [5, 18] was 6.36.
For `CN1CCc2c(cc(O)c(O)c2Cl)C(c2ccccc2)C1` (stereo not drawn) [SKF82957, R(+)-6-Chloro-7,8-dihydroxy-3-methyl-1-phenyl-2,3,4,5-tetrahydro-1H-3-benzazapine hydrobromide], the EC50 ([6]; Proline 37 (T37P), read-out: Ave −Log EC50 (converted)) was 955 nM, the FOLD ([6]; shift in functional potency, Proline 37 vs Threonine 37) was 11 fold and the EC50 ([7]; Serine 79 (P79S), read-out: Ave −Log EC50 (converted)) was 4570 nM. For the same compound, the FOLD ([7]; shift in functional potency, Serine 79 vs Proline 79) was 132 fold, the EC50 ([8]; Proline 79 (wild type), Table 4) was 34.7 nM and the EC50 ([8]; Serine 199 (wild type), Table 5) was 91.2 nM. The EC50 ([8]; Threonine 37 (wild type), Table 3) was 91.2 nM, the EC50 ([9]; Alanine 199 (S199A), read-out: Ave −Log EC50 (converted)) was 955 nM and the FOLD ([9]; shift in functional potency, Alanine 199 vs Serine 199) was 11 fold.
With `CN1CCN(CC/C=C2/c3ccccc3Sc3ccc(S(=O)(=O)N(C)C)cc32)CC1` [Thiothixene] the EC50 [10] was 6.92 nM, the EC50 ([11]; Proline 421 (L421P), inverse agonists, read-out: Ave −Log EC50 (converted)) was 21.9 nM and the FOLD ([11]; shift in functional potency, Proline 421 vs Leucine 421) was 3.2 fold.
Compound `CCCCC[C@H](O)/C=C/[C@@H]1[C@@H](C/C=C\CCCC(=O)O)[C@H]2CO[C@@H]1C2` [U46619] has an FOLD [12] of 5 fold, an FOLD [13] of 63 fold and an FOLD [14] of 6.0 fold.
For ANTHAMINE, the “Ave −Log EC50” value ([4]; Arginine 231 (K231R), agonists and inverse agonists, Table 11) was 7.29, the “Ave −Log EC50” value ([5]; Arginine 215 (wild type), Table 10) was 7.81 and the “Ave −Log EC50” value [5, 18] was 7.82.
CCK-4 showed an FOLD [15] of −12.0 fold.
In the case of CCK-8-Sulfated, the FOLD [15] is reported as −3.0 fold.
For “Leu/Pro NPY (from UniProt P01303 29-97) (peptide)”, the Ave -Log EC50, R-SAT functional potency [16] was 7.5 -log EC50.
“PEPTIDE YY (HUMAN) (from UniProt P10082 29-64)” was tested, and the Ave -Log EC50, R-SAT functional potency [17] was 6.91 -log EC50, the FOLD (shift in functional potency against wild type) [17] was 1070 fold and the Ave -Log EC50, R-SAT functional potency [16] was 9.94 -log EC50.
